Key:
human PPARγ = molecular target: T1, human PPARγ (Homo sapiens, UniProt P37231); test: PPARγ activation, luciferase reporter in transfected COS-7 cells; format: cell-based; conditions: 24 hours
T1 construct: expressed in transfected cells; host or cells: COS-7 monkey kidney cells (ATCC CRL-1651)
T1 sequence (P37231 176-477 isoform P37231-2): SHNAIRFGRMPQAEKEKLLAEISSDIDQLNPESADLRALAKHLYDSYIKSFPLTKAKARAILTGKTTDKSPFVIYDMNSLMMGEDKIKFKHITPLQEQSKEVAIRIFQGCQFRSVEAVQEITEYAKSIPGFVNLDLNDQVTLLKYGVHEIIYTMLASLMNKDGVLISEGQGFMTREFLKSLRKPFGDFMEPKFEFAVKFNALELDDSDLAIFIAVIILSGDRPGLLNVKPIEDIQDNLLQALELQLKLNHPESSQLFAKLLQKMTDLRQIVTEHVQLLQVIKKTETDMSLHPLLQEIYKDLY
Method: Then, the polynucleotide was cloned between the restriction enzyme sites of BamHI and KpnI of pFA vector (Stratagene, USA). […] RT-PCR was performed by synthesizing cDNA using reverse transcriptase at 42° C. for 60 minutes, and 30 cycles of 1 minute at 95° C., 30 seconds at 54° C. and 2 minutes at 72° C. using Taq polymerase. […] Then, the polynucleotide was cloned between the restriction enzyme sites of XbaI and KpnI of pFA vector (Stratagene, USA).

[1] = test system: obesity/diabetes mice (db/db mice); test: Anti-diabetes effect in obesity/diabetes mouse model; format: in vivo; conditions: for OGTT blood sugar: 12th day; for blood sugar level: 14 days; for blood sugar level / Adiponectin concentration in blood / Insulin concentration in blood: db/db mice; for Adiponectin concentration in blood / Insulin concentration in blood: 14th day
Text: A mouse (db/db mouse; The Jackson Laboratory, USA) used in the present invention as an obesity/diabetes model is deficient in leptin genes and cannot control its appetite, and thus takes an excessive amount of food continuously. […] Thus, it can be a typical model of obesity and metabolic diseases. Additionally, it has a higher blood sugar level and can be a typical model of non-insulin-dependent diabetes mellitus. To investigate the effect of preventing and treating diabetes of macelignan, seven mice of 10 week-aged obesity/diabetes mice (db/db mice) were used per test group. To the test groups, macelignan suspended in 0.25% carboxymethyl cellulose was orally administered with the dose of 5 mg/kg (body weight), 10 mg/kg (body weight) and 25 mg/kg (body weight), once per day at a predetermined time, for 14 days. As a control, 0.25% carboxymethyl cellulose was orally administered alone to normal mice in the same dose as administered to the test group. As another control, 0.25% carboxymethyl cellulose was orally administered alone to obesity/diabetes mice in the same dose as administered to the test group. As still another control, 10 mg/kg (body weight) of troglitazone was orally administered. Blood sugar levels of the obesity/diabetes mice were determined from six days before the administration, once per three days. On the 12th day after the oral administration, the test group and the controls were subjected to the Oral Glucose Tolerance Test (OGTT). For this test, obesity/diabetes mice in the test group and the controls were fasted for at least 18 hours, glucose was orally administered to the mice in a dose of 3 g/kg (body weight), and then variations in the blood sugar were measured at 0 minutes, 30 minutes, 60 minutes and 120 minutes after the glucose administration. Additionally, on the 14th day of the oral administration, the final blood sugar level, insulin content in blood (mouse insulin ELISA Kit, Linco Research, o. EZRMI-BK, USA) and adiponectin content in blood (Adiponectin Quantikine ELISA Kit, R&D systems, No. MRP300, USA) were analyzed.

[2] = test system: obesity/diabetes mice (db/db mice); test: Effect upon hyperlipidemia and cardiovascular diseases in obesity/diabetes mouse model; format: in vivo; conditions: 14 days
Method: To investigate effects of macelignan upon the treatment of hyperlipidemia and cardiovascular diseases, seven mice of 10 week-aged obesity/diabetes mice (db/db mice) were used per test group. To the test groups, macelignan suspended in 0.25% carboxymethyl cellulose was orally administered in an administration dose of 5 mg/kg (body weight), 10 mg/kg (body weight) and 25 mg/kg (body weight), once per day at a predetermined time, for 14 days. As a control, 0.25% carboxymethyl cellulose was orally administered alone to normal mice in the same dose as administered to the test group. As another control, 0.25% carboxymethyl cellulose was orally administered alone to obesity/diabetes mice in the same dose as administered to the test group. As still another control, 10 mg/kg (body weight) of troglitazone was orally administered. Fourteen days after the administration, triglyceride concentration in blood (triglyceride measuring kit, Wako, Japan), free fatty acid concentration in blood (free fatty acid measuring kit, Wako, Japan), total cholesterol content in blood (ASAN T-CHO-Lq Reagents, Asan Pharmaceutical Co. Ltd., Korea), HDL-cholesterol content in blood (ASAN HDL-Cholesterol, Asan Pharmaceutical Co. Ltd., Korea), IL-6 content in blood (IL-6 Quantikine ELISA, R&D systems, USA) and TNF-α content in blood were measured for the test groups and the controls.

Oral toxicity test = conditions: rat, in vivo; oral administration, rats; read-out: lethal dose 50% (LD50)

## COc1cc(C[C@H](C)[C@H](C)Cc2ccc3c(c2)OCO3)ccc1O (single isomer, unassigned) [macelignan]
Human PPARγ; 25 μM, control 0.01% DMSO
  luciferase activity higher than the control (PPARγ): about 10.4 times
Human PPARγ; 1, 5, 10 and 25 μM, p<0.01 vs control
  PPARγ activity: increased PPARγ activity in a concentration-dependent manner
[1]; 0 min. after glucose 3 g/kg, 5 mg/kg oral
  OGTT blood sugar: 379.14 ± 26.23 mg/dL
[1]; 0 min. after glucose 3 g/kg, 10 mg/kg oral
  OGTT blood sugar: 313.86 ± 51.40 mg/dL
[1]; 0 min. after glucose 3 g/kg, 25 mg/kg oral
  OGTT blood sugar: 319.14 ± 35.25 mg/dL
[1]; 5 mg/kg oral once per day
  blood sugar level: 552.84 ± 47.95 mg/dL
[1]; 5 mg/kg oral
  Adiponectin concentration in blood: 5111.14 ± 925.88 ng/mL
  Insulin concentration in blood: 26.33 ± 10.78 ng/mL
[1]; 10 mg/kg oral once per day
  blood sugar level: 501.03 ± 43.67 mg/dL
[1]; 10 mg/kg oral
  Adiponectin concentration in blood: 6882.86 ± 250.05 ng/mL
  Insulin concentration in blood: 16.66 ± 7.03 ng/mL
[1]; 25 mg/kg oral once per day
  blood sugar level: 412.74 ± 31.15 mg/dL
[1]; 25 mg/kg oral
  Adiponectin concentration in blood: 7864.00 ± 808.21 ng/mL
  Insulin concentration in blood: 8.51 ± 3.67 ng/mL
[1]; 30 mins. after glucose 3 g/kg, 5 mg/kg oral
  OGTT blood sugar: 636.85 ± 63.29 mg/dL
[1]; 30 mins. after glucose 3 g/kg, 10 mg/kg oral
  OGTT blood sugar: 670.14 ± 94.20 mg/dL
[1]; 30 mins. after glucose 3 g/kg, 25 mg/kg oral
  OGTT blood sugar: 580.00 ± 101.37 mg/dL
[1]; 60 mins. after glucose 3 g/kg, 5 mg/kg oral
  OGTT blood sugar: 613.38 ± 24.36 mg/dL
[1]; 60 mins. after glucose 3 g/kg, 10 mg/kg oral
  OGTT blood sugar: 593.11 ± 27.15 mg/dL
[1]; 60 mins. after glucose 3 g/kg, 25 mg/kg oral
  OGTT blood sugar: 509.70 ± 27.71 mg/dL
[1]; 120 mins. after glucose 3 g/kg, 5 mg/kg oral
  OGTT blood sugar: 564.21 ± 29.86 mg/dL
[1]; 120 mins. after glucose 3 g/kg, 10 mg/kg oral
  OGTT blood sugar: 529.46 ± 17.55 mg/dL
[1]; 120 mins. after glucose 3 g/kg, 25 mg/kg oral
  OGTT blood sugar: 431.21 ± 59.18 mg/dL
[2]; 5 mg/kg oral
  Free fatty acid in blood: 1.26 ± 0.19 mEq/l
  HDL-cholesterol in blood: 43.5 ± 6.73 mg/dL
  IL-6 in blood: 21.42 ± 11.42 pg/mL
  TNF-α in blood: 36.92 ± 16.27 pg/mL
  Total cholesterol in blood: 119 ± 13.8 mg/dL
  Triglyceride in blood: 98.71 ± 36.62 mg/dL
[2]; 10 mg/kg oral
  Free fatty acid in blood: 1.16 ± 0.31 mEq/l
  HDL-cholesterol in blood: 42.2 ± 7.29 mg/dL
  IL-6 in blood: 12.04 ± 5.47 pg/mL
  TNF-α in blood: 16.41 ± 9.60 pg/mL
  Total cholesterol in blood: 110 ± 15.2 mg/dL
  Triglyceride in blood: 91.71 ± 44.04 mg/dL
[2]; 25 mg/kg oral
  Free fatty acid in blood: 1.14 ± 0.15 mEq/l
  HDL-cholesterol in blood: 46.6 ± 3.89 mg/dL
  IL-6 in blood: 4.86 ± 2.46 pg/mL
  TNF-α in blood: 27.54 ± 9.77 pg/mL
  Total cholesterol in blood: 110 ± 23.7 mg/dL
  Triglyceride in blood: 84.00 ± 31.24 mg/dL
Oral toxicity test
  LD50: ≥ 2000 mg/kg
